Test results taken from paper PMC10913065, “Rapid sp^3-Enriched Scaffold Generation via a Selective Aziridine Amide Ring-Opening Reaction” (The Journal of Organic Chemistry, 2024).
In brackets after ≈: the same amount, converted by molar mass.

Experiment: Kinetic solubility assay (adapted shake flask method, McIlvaine buffer)
Format: physicochemical
Details: pH 6.8, aqueous buffer, kinetic from dmso stock
Procedure: 10. Kinetic Solubility assay
Kinetic Solubility assay protocol
Adapted standard shake flask method to run in 1 mL 96-deep-well plates at a concentration of 100 µM in McIlvaine Buffer at pH values of 6.8 from 10 mM DMSO stock solutions.
Compounds are prepared in triplicate and incubated in buffer at room temperature for 18 hours while shaking at 700 RPM. After incubation the 96-deep-well plate is centrifuged at 5000 g for 10 minutes, half of the volume is transferred to another deep well plate and centrifuged again at 5000 g for 10 minutes. 200 µL are transferred from each well to a Greiner Bio-one 200 µL 96-well V-bottom plate and sealed. A six-point calibration curve is prepared for each compound ranging from 100 µM down to 0.5 µM. All samples are analyzed via UV-UHPLC on an Agilent 1290 Infinity (binary pump, auto-sampler, column compartment at 55 °C, and PDA) with a Phenomenex Kinetex EVO C18, 50 x 1 mm, 1.7 µm, 100 Å column, at 0.5 mL. Injections of 3 µL are analyzed with gradient elution using Milli-Q water with 0.05% trifluoroacetic acid (A1) and acetonitrile with 0.05% trifluoroacetic acid (B1) from 95:5 A1/B1 to 5:95 A1/B1 over 1.3 minutes with a 0.2 minute hold at 5:95 A1/B1. Wavelengths at 215 nm and 254 nm are monitored, peaks are integrated, and the peak area and peak height are used with linear regression analysis from the calibration curves to determine the solubility values.6 Kinetic Solubility assay data
A kinetic solubility for d, e, f, and g was calculated in the following Table.
Compound Kinetic solubility (µM, pH=6.8)
Table S7. Kinetic solubility for representative compounds.

[1] = pH=6.8, McIlvaine Buffer, 100 µM from 10 mM DMSO stock, room temperature, 18 hours, triplicate

## Cc1ccccc1Oc1ccccc1NC(=O)c1ccccc1 [d, reference compound]
At neutral pH
  solubility kinetic at 18 h: 5.74 µM (≈ 1.74 µg/mL)

## Cc1ccccc1O[C@H]1CNC[C@@H]1NC(=O)c1ccccc1 [f]
At neutral pH
  solubility kinetic at 18 h: 90.7 µM (≈ 26.9 µg/mL)
[1]
  solubility kinetic at 18 h: 79.07 ± 0.44 µM (≈ 23.4 µg/mL)

## Cc1ccccc1O[C@H]1CCCNCC[C@@H]1NC(=O)c1ccccc1 [g]
At neutral pH
  solubility kinetic at 18 h: 92.2 µM (≈ 31.2 µg/mL)

## Cc1ccccc1O[C@H]1CCNC[C@@H]1NC(=O)c1ccccc1 [e]
At neutral pH
  solubility kinetic at 18 h: 79.1 µM (≈ 24.5 µg/mL)
[1]
  solubility kinetic at 18 h: 90.67 ± 0.32 µM (≈ 28.1 µg/mL)
